The values that follow come from patent publication US10851073B2, “Protein tyrosine phosphatase inhibitors and methods of use thereof” (Calico Life Sciences LLC, priority 2019, dated 2020).

The term IC50 denotes the concentration at which inhibition is half-maximal. The EC50 is the concentration that produces a half-maximal response. High values mean a less potent agent, low ones a more potent agent.

Experiment [1] relates to B16F10 mouse melanoma cells. Put plainly: B16F10 IFNγ-induced cellular growth inhibition assay. The format is cell-based. The conditions noted are these: B16-F10, with 0.5 ng/mL IFNγ. In outline: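 B16F10 cells grown in DMEM+10% FBS, with or without 0.5 ng/mL final mouse IFNγ, and dosed in triplicate at 100 μM to 0.001 μM final (0.1% DMSO). Confluence imaged every 6 h for 5 days; percent growth inhibition versus DMSO/with-IFNγ control taken once DMSO/no-IFNγ wells exceeded 95% confluence, giving IC50.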

The test system of experiment [2] is IFNγ-induced STAT1 phosphorylation in CD14+ monocytes. Put plainly: Human whole blood pSTAT1 proximal pharmacodynamic (PD) assay. The format is cell-based. The following applies: Monocyte, 3 hours compound, IFNγ 20 minutes. As to the method:
Example 230: Human Whole Blood pSTAT1 Proximal Pharmacodynamic (PD) Assay Human blood samples were acquired through internal AbbVie Inc's blood donation program in accordance with AbbVie's Occupational Safety and Health Administration protocols. Blood was collected by venipuncture into sodium heparin coated vacutainer tubes and kept at room temperature for no longer than 1 hour prior to the experiment initiation. Human blood samples (90 μL) were added to the individual wells of 96-well plates containing 10 μL of 10× working stock solutions of increasing concentrations of compounds to achieve final concentrations ranging from 0.025 μM to 500 μM and incubated for 3 hours at 37° C. To induce STAT1 phosphorylation the samples were then treated with recombinant human IFNγ (R&D Systems, Catalog^#285-IF, Minneapolis, Minn.; 100 nM final concentration) for 20 minutes, and 3 μL/well BV421 labeled anti-CD14 surface antibody (Biolegend, San Diego, Calif., Catalog^#301830) was added for 45 minutes before fixation and red blood cell lysis was performed with BD Phosflow Lyse/Fix buffer (BD Biosciences, San Jose, Calif., Catalog^#558049). Cells were subsequently permeabilized on ice by the addition of BD Perm III buffer (BD Biosciences, San Jose, Calif., Catalog^#558050) and stored at -80° C. until use. Before staining, the cells were washed with PBS containing 0.1% BSA. Optim/zed concentrations of BUV395 labeled anti-CD45 (BD Biosciences, San Jose, Calif., Catalog^#563792) and PE labeled anti-phospho-STAT1 ([…]; Invitrogen, Carlsbad, Calif., Catalog^#12-9008-42) antibodies were added to the cell suspensions and incubated for 2 hours. The cells were washed with PBS containing 0.1% BSA and analyzed on a BD LSRFortessaTM X20 flow cytometer (BD Biosciences, San Jose, Calif.) using BD FACSDivaTM software. The data was analyzed using FlowJo V10 analysis software (Flow Jo LLC, Ashland, Oreg.). The amount of STAT phosphorylation was measured by the mean fluorescence intensity (MFI) of pSTAT1 in CD14+monocytes. Compound dose-response curves were determined using a four-parameter logistic-nonlinear regression model from which half maximal effective concentrations (EC50) were calculated. All statistical analyses utilized GraphPad software (San Diego, Calif.).

In experiment [3] the target is T1, His tagged PTPN2 (TC45) protein (Homo sapiens, UniProt P17706).
T1 construct: made in house
T1 sequence (P17706 with tags, fused parts or gaps isoform P17706-2): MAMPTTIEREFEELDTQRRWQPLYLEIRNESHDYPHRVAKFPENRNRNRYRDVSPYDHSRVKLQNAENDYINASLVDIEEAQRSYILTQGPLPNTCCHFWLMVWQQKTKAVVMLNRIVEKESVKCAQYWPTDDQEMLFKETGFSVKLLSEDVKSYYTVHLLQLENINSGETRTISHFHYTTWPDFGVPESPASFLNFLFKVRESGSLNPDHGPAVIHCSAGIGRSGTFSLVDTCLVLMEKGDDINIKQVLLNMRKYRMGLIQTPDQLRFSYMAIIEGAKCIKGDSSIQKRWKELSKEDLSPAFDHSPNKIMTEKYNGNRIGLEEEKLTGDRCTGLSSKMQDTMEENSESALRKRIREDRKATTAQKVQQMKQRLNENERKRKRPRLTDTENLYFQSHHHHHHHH
As to the kind of experiment: Mobility shift assay used to determine potency of PTPN2 inhibitors. The format is biochemical. The conditions noted are these: enzyme 0.5 nM, substrate 2 μM; read-out: PTPN2 MSA IC50. In outline:
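Microfluidic mobility-shift read-out (488/530 nm) of dephosphorylation of an OG488-tagged phosphotyrosine insulin receptor peptide, 2 μM, over 10 min at room temperature, after 10 min compound preincubation with 0.5 nM enzyme. Buffer: 50 mM HEPES pH 7.5, EGTA, EDTA, Tween 20, DTT. IC50 derived from % inhibition over 12-point 1:3 series.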

Experiment [4] concerns the target T2, His tagged full-length PTPN1 protein (Homo sapiens, UniProt P18031).
T2 construct: made in house
T2 sequence (P18031 with tags, fused parts or gaps): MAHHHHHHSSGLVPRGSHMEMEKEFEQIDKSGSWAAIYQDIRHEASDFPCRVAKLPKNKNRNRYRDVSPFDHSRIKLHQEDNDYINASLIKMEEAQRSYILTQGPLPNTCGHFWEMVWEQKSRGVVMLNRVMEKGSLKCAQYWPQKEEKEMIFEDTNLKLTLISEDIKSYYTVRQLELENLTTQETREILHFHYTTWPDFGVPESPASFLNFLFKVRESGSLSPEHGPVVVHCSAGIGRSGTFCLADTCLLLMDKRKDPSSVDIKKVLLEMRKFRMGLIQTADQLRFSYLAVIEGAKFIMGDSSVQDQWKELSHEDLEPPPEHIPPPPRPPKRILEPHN
Put plainly: Mobility shift assay (MSA) used to determine potency of PTPN1 inhibitors. Format: biochemical. The conditions noted are these: enzyme 0.5 nM, substrate 2 μM. In outline:
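Full-length His-tagged human PTPN1 (0.5 nM) was preincubated 10 min at room temperature with compound (12-point, 1:3 dilution) in HEPES pH 7.5 buffer with EGTA, EDTA, Tween 20 and DTT. A 2 μM fluorescent phospho-insulin receptor peptide was then added for 10 min before quench. Mobility-shift % conversion gave % inhibition and IC50.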

Experiment [5] concerns Pan T cells isolated from C57BL6 splenocytes. As to the kind of experiment: T cell function assays (IFNγ and TNFα in supernatants). The format is cell-based, mouse. The following applies: 0.3 μM compound, 3 days; for IFNγ [pg/mL] anti-CD3/CD28 / TNFα [pg/mL] anti-CD3/CD28: anti-CD3/CD28 stimulation. As to the method:
Example 231: T Cell Function Assays Pan T cells were isolated from C57BL6 splenocytes using a MACS Pan T cell isolation kit II (Miltenyi Biotec, Auburn, Calif.) according to the manufacturer's instructions. Isolated T cells (200,000 cells/well in a 96 well flat-bottom plate) were cultured in RPMI 1640 supplemented with 10% FBS, […] 2-mercaptoethanol, 100 U/mL penicillin, and 100 μg/mL streptomycin, and incubated with 0.3 μM compound or DMSO in duplicates. After 1 hour, mouse T cell activator CD3/CD28 Dynabeads (ThermoFisher Scientific, Waltham, Mass.) were added at a 1:5 beads to cells ratio to stimulate the T cells for 3 days. T cells with or without compound were incubated in the absence of T cell activator beads to evaluate if compounds nonspecifically stimulate the T cells. After 3 days of stimulation, supernatants were collected and IFNγ and TNFα in supernatants were assessed using an MSD V-plex assay (Meso Scale Discovery, Rockville, Md.).

Setting [6] is: read-out: B16F10 Growth Inhibition IC50.

SMILES strings stand for the structures. Read-outs that look alike come from different tables or passages of the source. Bounds are passed on as bounds.

Consider `O=C1CN(c2c(O)cc3c(c2F)C[C@H](NCCC2CCCC2)CC3)S(=O)(=O)N1` [Compound 200, 5-{(7R)-7-[(2-cyclopentylethyl)amino]-1-fluoro-3-hydroxy-5,6,7,8-tetrahydronaphthalen-2-yl}-1λ^6,2,5-thiadiazolidine-1,1,3-trione], for which the IC50 in experiment [1] (read-out: B16F10 GI IC50) was under 1000 nM; in experiment [1] (setting [6]), under 50 nM. The molecule also showed an EC50 in experiment [2] of 2400 nM.
With `O=C1CN(c2c(O)cc3c(c2F)C[C@H](NCCCC(F)(F)F)CC3)S(=O)(=O)N1` (single isomer, unassigned) [Compound 146], the IC50 was 1 to 10 nM in experiment [3], under 1000 nM in experiment [1] (read-out: B16F10 GI IC50) and under 50 nM in experiment [1] (setting [6]). The EC50 in experiment [2] is 400 nM.
Consider `O=C1CN(c2c(O)cc3c(c2F)C[C@H](NCCC2(C(F)(F)F)CC2)CC3)S(=O)(=O)N1` (single isomer, unassigned) [Compound 148], for which the half-inhibitory concentration (IC50) in experiment [3] is under 1 nM. Besides, the IC50 in experiment [4] was under 1 nM. Further, in experiment [1] (read-out: B16F10 GI IC50), the IC50 is under 1000 nM. Also, in experiment [5], the “IFNγ [pg/mL] anti-CD3/CD28” value was found to be 168.4 pg/mL, the “TNFα [pg/mL] anti-CD3/CD28” value is recorded as 123.4 pg/mL, the “IFNγ [pg/mL] no stimulation” value is on record as 1.0 pg/mL and the “TNFα [pg/mL] no stimulation” value amounted to 0.8 pg/mL.
In the case of `CC(C)CCCC1(N)CCc2cc(O)c(N3CC(=O)NS3(=O)=O)c(F)c2C1` (centres unmarked) [Compound 254, 5-[7-amino-1-fluoro-3-hydroxy-7-(4-methylpentyl)-5,6,7,8-tetrahydronaphthalen-2-yl]-1λ^6,2,5-thiadiazolidine-1,1,3-trione], in experiment [3], the IC50 lay in the range of 10 to 100 nM. In experiment [4], the IC50 lay in the range of 10 to 100 nM. The IC50 in experiment [1] (read-out: B16F10 GI IC50) lay in the range of 1000 to 10000 nM. Also, in experiment [5], the “IFNγ [pg/mL] anti-CD3/CD28” value was 97.0 pg/mL, the “TNFα [pg/mL] anti-CD3/CD28” value was 91.2 pg/mL, the “IFNγ [pg/mL] no stimulation” value came out at 0.7 pg/mL and the “TNFα [pg/mL] no stimulation” value is recorded as 1.1 pg/mL.
With `CCC(CC)CCN[C@@H]1CCc2cc(O)c(N3CC(=O)NS3(=O)=O)c(F)c2C1` [Compound 204, 5-{(7R)-7-[(3-ethylpentyl)amino]-1-fluoro-3-hydroxy-5,6,7,8-tetrahydronaphthalen-2-yl}-1λ^6,2,5-thiadiazolidine-1,1,3-trione], in experiment [5], the “IFNγ [pg/mL] anti-CD3/CD28” value was found to be 148.8 pg/mL, the “TNFα [pg/mL] anti-CD3/CD28” value is on record as 105.4 pg/mL, the “IFNγ [pg/mL] no stimulation” value is 1.8 pg/mL and the “TNFα [pg/mL] no stimulation” value amounted to 1.1 pg/mL.
Take `CCC1CCc2cc(O)c(N3CC(=O)NS3(=O)=O)c(F)c2C1` (centres unmarked) [Compound Z]: the concentration for half-maximal inhibition (IC50) in experiment [1] (setting [6]) worked out at 17800 nM. This molecule also registered an EC50 in experiment [2] of over 500000 nM.
With `CC(C)CCNC[C@@H]1Cc2cc(O)c(N3CC(=O)NS3(=O)=O)c(F)c2C1` (single isomer, unassigned) [Compound 291], the IC50 in experiment [3] is 1 to 10 nM. Also, the IC50 in experiment [4] lay within 1 to 10 nM. In experiment [1] (read-out: B16F10 GI IC50), the half-inhibitory concentration (IC50) is under 1000 nM. In addition, in experiment [5], the “IFNγ [pg/mL] anti-CD3/CD28” value turned out to be 83.3 pg/mL, the “TNFα [pg/mL] anti-CD3/CD28” value is recorded as 91.2 pg/mL, the “IFNγ [pg/mL] no stimulation” value came to 0.7 pg/mL and the “TNFα [pg/mL] no stimulation” value is listed as 1.1 pg/mL.
Regarding `CC(C)(O)CCOc1ccc2cc(O)c(N3CC(=O)NS3(=O)=O)c(F)c2c1` [Compound Y], the concentration for half-maximal inhibition (IC50) in experiment [1] (setting [6]) was 5800 nM. In experiment [2], this molecule returned an EC50 of 38000 nM. Besides, in experiment [5], the “IFNγ [pg/mL] anti-CD3/CD28” value is on record as 67.2 pg/mL, the “TNFα [pg/mL] anti-CD3/CD28” value was 32.5 pg/mL, the “IFNγ [pg/mL] no stimulation” value is reported as 1.2 pg/mL and the “TNFα [pg/mL] no stimulation” value amounted to 1.0 pg/mL.
As to `C[C@@H](O)CCN[C@@H]1CCc2cc(O)c(N3CC(=O)NS3(=O)=O)c(F)c2C1` (single isomer, unassigned) [Compound 307], in experiment [3], the IC50 lay within 1 to 10 nM. Besides, the IC50 in experiment [4] lay in the range of 1 to 10 nM. The IC50 in experiment [1] (read-out: B16F10 GI IC50) was under 1000 nM. For the same molecule, in experiment [5], the “IFNγ [pg/mL] anti-CD3/CD28” value is listed as 66.7 pg/mL, the “TNFα [pg/mL] anti-CD3/CD28” value stood at 89.5 pg/mL, the “IFNγ [pg/mL] no stimulation” value was 1.2 pg/mL and the “TNFα [pg/mL] no stimulation” value was found to be 1.1 pg/mL.
Consider `C[Si](C)(C)CCCNC1CCc2cc(O)c(N3CC(=O)NS3(=O)=O)c(F)c2C1` (centres unmarked) [Compound 189, 5-(1-fluoro-3-hydroxy-7-{[3-(trimethylsilyl)propyl]amino}-5,6,7,8-tetrahydronaphthalen-2-yl)-1λ^6,2,5-thiadiazolidine-1,1,3-trione], for which the IC50 is 1 to 10 nM in experiment [3], over 100 nM in experiment [4] and 1000 to 10000 nM in experiment [1] (read-out: B16F10 GI IC50).
